Data set [1] relates to UMSCC 22A cells. Description: Cellular uptake by confocal microscopy and flow cytometry. It is filed as cell-based. The note with it: flow cytometry, 3 h incubation, FIG. 8. On the procedure:
UMSCC 22A cells (300,000cells/well) were seeded in 6-well plates overnight. After that, DOX, DOX@PLGA/PD-PEG, and DOX@PLGA/PD-C nanoparticles were added at the DOX equivalent concentration of 1 μg/m L. In order to investigate the effect of EGFR on the cellular uptake of DOX@PLGA/PD-C nanoparticle, cells were pretreated with free anti-EGFR antibody (200 μg/mL) 30 min before adding DOX@PLGA/PD-C nanoparticles. The plate was incubated at 37° C. for 3 h. Then cells were washed, trypsinized and resuspended in PBS. DOX-positive cell population was quantified at Ex=488 nm, Em=585 nm using flow cytometry (BD Accuri C6, BD Biosciences).
(In general: Flow cytometry measures light scatter and fluorescence of single cells or particles in a stream.)

In data set [2] the test system is UMSCC 22A cells. Description: Tumor growth inhibitory assay, subcutaneous head and neck cancer mouse model. It is filed as in vivo, female Balb/c nude mice. On the procedure: UMSCC 22A cells (3×10^6 cells in 100 μL DMEM medium) were inoculated subcutaneously in female Balb/c nude mice (8-10 week old, ˜20 g, Jackson Laboratory). The tumor volume was measured by a digital caliper and calculated according to the following formula: Tumor volume=tumor length)×(tumor width)^2/2. […] For the control group, PBS was injected. Mice were exposed to an 808 nm laser irradiation (2.83 W/cm^2) 3 h post injection for 10 min. The temperature of the mice during the irradiation was recorded by the FLIR thermal camera. The tumor volumes (V) of the mice were measured every other day for 24 days. The relative tumor volume expressed as V/V0 (V0 was the tumor volume when the treatment was initiated) was used to represent the tumor size change during the whole treatment process. After 24 days, the mice were sacrificed and the blood, tumor, liver, heart, lung, kidneys, and spleen were collected for further analysis. All organs were firstly fixed in 10% neutral buffered formalin for 48 h and then washed with PBS and finally kept in 70% ethanol at 4° C.

Data set [3] has as its system UMSCC 22A cells. Nature of the data set: In vitro cytotoxicity (MTT cell proliferation assay) with or without NIR irradiation. The note with it: FIG. 9. In kind it is cell-based. As for the experimental part: The cytotoxicity of nanoparticles was evaluated by MTT assay. UMSCC 22A cells were seeded in 96-well plate (20,000 cells/well) for 24 h prior to the study. Following, either free DOX or DOX@PLGA/PD-PEG nanoparticles with DOX concentration equal to 2, 5 and 10 μg/mL were added. For comparison, PLGA/PD-PEG (no DOX encapsulation) nanoparticles were also added. The cells were then incubated 3 h in 95/5% air/CO2 at 37° C. followed by irradiation under a 808 nm laser for 10 min. After that, all wells were washed 2 times and replaced with fresh culture medium and kept incubation for another 24 h. Finally, MTT reagent (100 μL, 10%(w/w) in medium) was added and incubated for 4h, following the addition of MTT stop solution and the measurement of the optical density of the medium using a microplate reader (ELX808, Bio-Tech Instrument, Inc.) at λ=595 nm.
In general terms: Tetrazolium dyes change colour on reduction, which living cells bring about.

Data set [4] can be described thus: TEM analysis of heart tissue (cardiotoxicity). It is filed as in vivo, mice. Conditions: hearts collected after 24 days; DOX@PLGA/PD-C coupled with NIR irradiation. On the procedure:
To study the cardiotoxicity of DOX, the hearts of the mice were analyzed by TEM. The formalin fixed samples were further fixed with 1% perosmic oxide for 2 h at 4° C., washed with water and then dehydrated in a series of alcohol solutions, embedded, and sliced with the thickness between 50 and 70 nm. TEM analysis was performed on Hitachi H8000 operating at 200 kV.

For the molecule `COc1cccc2c1C(=O)c1c(O)c3c(c(O)c1C2=O)C[C@@](O)(C(=O)CO)C[C@@H]3O[C@H]1C[C@H](N)[C@H](O)[C@H](C)O1` [free DOX, Doxorubicin], in data set [1], the “speed of entry into cancer cells” value is recorded as “entered cancer cells faster than the DOX@PLGA/PD-C nanoparticles”. Moreover, the “tumor recurrence / regrowth” value in data set [2] (24-day observation) is listed as “gradually bounced back 10 days post treatment”. Besides, the “tumor response after treatment” value in data set [2] (intratumoral, 40 μL, DOX equivalent 15 μg/mL, DOX@PLGA/PD-C coupled with NIR irradiation) was “only slightly reduced tumor size”. Moreover, the “H&E staining of tumor tissue” value in data set [2] (tumors collected after 24 days) was “kept the characteristics of squamous cell carcinoma”. In data set [3], the “cell killing effect versus other treatments” value was “higher cell killing effect than other treatments except at 10 μM dose”. In data set [4], the “heart tissue structure (mitochondria) by TEM” value is listed as “significantly compromised”.
